Measured values from the supplement of paper PMC10307832.

Assays:
Experiment in all cases: relative viability (nuclei count vs DMSO), 5 days (fraction); higher = more cells survive
[1] = compound: CCn1c(-c2nonc2N)nc2c(C#CC(C)(C)O)ncc(OC[C@H]3CCCNC3)c21 + CS(=O)(=O)CCNCc1ccc(-c2ccc3ncnc(Nc4ccc(OCc5cccc(F)c5)c(Cl)c4)c3c2)o1 [Lapatinib] (partner 2 µM)
How it was run: (§1)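 Nuclei were stained with Hoechst during a one-step fixation (final 0.05% Triton X-100, 1% formaldehyde, 1 ug/ml Hoechst) carried out 5 days after dosing, then counted on 4× images. The cells, lung cancer lines in 1536-well plates, had been dosed by pin tool the day after seeding with one drug alone or a fixed anchor-drug dose plus five library-drug doses (not always all listed) in √10 steps. Relative viability is the nuclei count in treated wells divided by that in vehicle wells, and each value is the median of duplicate plates.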

[2] = compound: CCn1c(-c2nonc2N)nc2c(C#CC(C)(C)O)ncc(OC[C@H]3CCCNC3)c21 + Cc1nc(Nc2ncc(C(=O)Nc3c(C)cccc3Cl)s2)cc(N2CCN(CCO)CC2)n1 [Dasatinib] (partner 0.075 µM)
How it was run: as §1

BAM7 + OSI-027 = compound: CCOC1=CC=CC=C1N=NC2=C(NN(C2=O)C3=NC(=CS3)C4=CC=CC=C4)C [BAM7] + COc1cccc2cc(-c3nc([C@H]4CC[C@H](C(=O)O)CC4)n4ncnc(N)c34)[nH]c12 [OSI-027] (partner 0.5 µM)
How it was run: as §1

BAM7 + Pictilisib = compound: CCOC1=CC=CC=C1N=NC2=C(NN(C2=O)C3=NC(=CS3)C4=CC=CC=C4)C [BAM7] + CS(=O)(=O)N1CCN(Cc2cc3nc(-c4cccc5[nH]ncc45)nc(N4CCOCC4)c3s2)CC1 [Pictilisib] (partner 1 µM)
How it was run: as §1

Cell Line	relative viability ([1]; first compound 0.01 µM)	relative viability ([1]; first compound 0.03162 µM)	relative viability ([1]; first compound 0.1 µM)	relative viability ([1]; first compound 0.3162 µM)	relative viability ([1]; first compound 1 µM)	relative viability ([2]; first compound 0.01 µM)	relative viability ([2]; first compound 0.03162 µM)	relative viability ([2]; first compound 0.1 µM)	relative viability ([2]; first compound 0.3162 µM)	relative viability ([2]; first compound 1 µM)	relative viability (BAM7 + OSI-027; first compound 0.5 µM)	relative viability (BAM7 + OSI-027; first compound 5 µM)	relative viability (BAM7 + OSI-027; first compound 15.81 µM)	relative viability (BAM7 + OSI-027; first compound 50 µM)	relative viability (BAM7 + Pictilisib; first compound 0.5 µM)	relative viability (BAM7 + Pictilisib; first compound 5 µM)	relative viability (BAM7 + Pictilisib; first compound 15.81 µM)	relative viability (BAM7 + Pictilisib; first compound 50 µM)
NCI-H1437	0.841	0.821	0.877	0.719	0.795	0.381	0.359	0.391	0.385	0.354	1.19	0.985	0.883	0.972	0.722	0.434	0.318	0.63
NCI-H1792	0.897	0.859	0.862	0.757	0.871	0.758		0.818	0.705	0.897	0.694	0.71	0.553	0.624	0.282	0.258	0.228	0.289
NCI-H650	0.733	0.838	0.783	0.753	0.741	0.44	0.392	0.453	0.457	0.448	0.505	0.591	0.493	0.589	0.893	1.03	0.896	0.77
COR-L23	0.935	0.994	0.985	0.916	1.05	0.521	0.445	0.505	0.467	0.534	0.772	0.74	0.802	0.858	0.832	0.855	0.743	0.872
COR-L 105	0.33	0.366	0.313	0.393	0.321	0.365	0.326	0.357	0.353	0.287	0.688	0.579	0.73	0.713	0.366	0.427	0.432	0.455
LK-2	0.998	1.01	0.668	0.697	0.926	0.252	0.275			0.406	0.206	0.205	0.225	0.218	0.595	0.663	0.598	0.546
201T	0.991	1.06	1.05	1.05	1.01	0.576	0.644	0.516	0.51	0.597	0.772	0.662	0.708	0.705	0.637	0.625	0.593	0.69
NCI-H596	0.935	0.954	0.92	0.901	0.986	0.641	0.67	0.563	0.48	0.554	0.686	0.576	0.593	0.725	0.372	0.455	0.399	0.35
H3255	0.259	0.202	0.217	0.276	0.228	0.323	0.412	0.378	0.284	0.305	0.593	0.622	0.443	0.568	0.544	0.652	0.568	0.579
NCI-H647	0.874	1.23	1.08	0.788	0.981	0.193	0.224	0.184	0.152	0.164	0.613	0.622	0.549	0.68	0.49	0.511	0.478	0.541
NCI-H2023	0.74	0.792	0.769	0.689	0.953	0.454	0.572	0.492	0.388	0.344	0.357	0.347	0.297	0.506	0.277	0.245	0.3	0.297
NCI-H23	1.07	1.05	1.14	1.17	0.776	0.798	0.631	0.795	1.05	0.884	0.492	0.561	0.451	0.526	0.55	0.52	0.499	0.542
NCI-H1944	0.767	0.825	0.751	0.773	0.819	0.215	0.224	0.213	0.212	0.212	0.39	0.439	0.434	0.445	0.344	0.384	0.332	0.346
NCI-H1793	0.75	0.699	0.577	0.548	0.939	0.361	0.406	0.399	0.359	0.421	0.271	0.267	0.25	0.233	0.445	0.3	0.317	0.358
NCI-H520	0.923	0.952	0.727	0.454	0.425	0.223	0.2	0.181	0.159	0.134	0.305	0.263	0.293	0.356	0.273	0.3	0.264	0.324
